Measured values reported in article PMC7033278, “A Nonpeptide Oxytocin Receptor Agonist for a Durable Relief of Inflammatory Pain” (Scientific Reports, 2020).
Entries after “also recorded” stand apart in the source; their conditions may differ.

Assays:
[1] = molecular target: T1, ionotropic TRPV1 receptor (Homo sapiens, UniProt Q8NER1); assay: Eurofins functional profiling, TRPV1 agonist/antagonist; assay type: cell-based; conditions: 5 μM
T1 construct: Eurofins (contract assay)
Experimental: In vitro profiling of LIT-001 was performed by Eurofins as described in the Eurofins SafetyScreen-Functional panel, 2018[31]. The hepatotoxicity of LIT-001 was studied with cryo-preserved mouse hepatocytes. After unfreezing (optiTHAW and optiINCUBATE media, Xenotech) and cell viability control, cells (2 × 10^6 cells/ml) were dispatched in 96 well microtiterplates. LIT-001 was added to reach a concentration 1 μM in the presence of 1 × 10^6 cells/mL in a volume of 100 μl/well. The incubation was stopped at 4, 20, 40, 80 and 120 min in adding 100 μl of acetonitrile at 0 °C. A positive control was treated in the same conditions. All samples were analyzed by UHPLC coupled to a mass spectrometer (Shimadzu LC-MS 8030).

CYP 1A2 = molecular target: T2, CYP 1A2 (Homo sapiens, UniProt P05177); assay: cytochrome inhibition, human liver microsomes; assay type: in vitro ADME
T2 construct: phosphate buffer containing human liver microsomes (0.2 mg/ml); from tissue; host or cells: human liver microsomes
Experimental: (§1) Cytochrome inhibition by LIT-001 was studied as follows. A stock solution of LIT-001 at 10 mM in DMSO was prepared and stored at 4 °C. Solutions containing the cytochrome substrates and control inhibitors or LIT-001 were prepared. 2 μl of substrate-inhibitor solutions were mixed with 176 μl of phosphate buffer containing human liver microsomes (0.2 mg/ml), 1 mM of NADPH and 3 mM of MgCl2. Height concentrations were tested: 0.03; 0.1; 0.3; 1; 3; 10; 30 and 100 μM. The reaction was initiated by addition of the co-factor after 5 min of incubation at 37 °C. After one hour of incubation, 200 μl of acetonitrile were added to stop enzymatic reactions and solubilize the products. Different control inhibitors were used and supernatants were analyzed by LC-MS/MS (UHPLC separation; Shimadzu LC-MS 8030). • Furafylline (CYP 1A2 inhibitor): 0.03; 0.1; 0.3; 1; 3; 10; 30 and 100 μM • Sulfaphenazole (CYP 2C9 inhibitor): 0.03; 0.1; 0.3; 1; 3; 10; 30 and 100 μM • Tranylcypromine (CYP 2C19 inhibitor): 0.03; 0.1; 0.3; 1; 3; 10; 30 and 100 μM • Quinidine (CYP […] inhibitor): 0.003; 0.01; 0.1; 0.5; 1; 5; 10 and 50 μM • Kétoconazole (CYP 3A4 inhibitor): 0.003; 0.01; 0.1; 0.5; 1; 5; 10 and 50 μM

CYP 3A4 = molecular target: T3, CYP 3A4 (Homo sapiens, UniProt P08684); assay: cytochrome inhibition, human liver microsomes; assay type: in vitro ADME
T3 construct: phosphate buffer containing human liver microsomes (0.2 mg/ml); from tissue; host or cells: human liver microsomes
Experimental: as §1

CYP 2C19 = molecular target: T4, CYP 2C19 (Homo sapiens, UniProt P33261); assay: cytochrome inhibition, human liver microsomes; assay type: in vitro ADME
T4 construct: phosphate buffer containing human liver microsomes (0.2 mg/ml); from tissue; host or cells: human liver microsomes
Experimental: as §1

CYP 2D6 = molecular target: T5, CYP 2D6 (Homo sapiens, UniProt P10635); assay: cytochrome inhibition, human liver microsomes; assay type: in vitro ADME; conditions: 0.03-100 μM
T5 construct: phosphate buffer containing human liver microsomes (0.2 mg/ml); from tissue; host or cells: human liver microsomes
Experimental: as §1

CYP 2C9 = molecular target: T6, CYP 2C9 (Homo sapiens, UniProt P11712); assay: cytochrome inhibition, human liver microsomes; assay type: in vitro ADME; conditions: 0.03-100 μM
T6 construct: phosphate buffer containing human liver microsomes (0.2 mg/ml); from tissue; host or cells: human liver microsomes
Experimental: as §1

T1 sequence (Q8NER1 whole entry): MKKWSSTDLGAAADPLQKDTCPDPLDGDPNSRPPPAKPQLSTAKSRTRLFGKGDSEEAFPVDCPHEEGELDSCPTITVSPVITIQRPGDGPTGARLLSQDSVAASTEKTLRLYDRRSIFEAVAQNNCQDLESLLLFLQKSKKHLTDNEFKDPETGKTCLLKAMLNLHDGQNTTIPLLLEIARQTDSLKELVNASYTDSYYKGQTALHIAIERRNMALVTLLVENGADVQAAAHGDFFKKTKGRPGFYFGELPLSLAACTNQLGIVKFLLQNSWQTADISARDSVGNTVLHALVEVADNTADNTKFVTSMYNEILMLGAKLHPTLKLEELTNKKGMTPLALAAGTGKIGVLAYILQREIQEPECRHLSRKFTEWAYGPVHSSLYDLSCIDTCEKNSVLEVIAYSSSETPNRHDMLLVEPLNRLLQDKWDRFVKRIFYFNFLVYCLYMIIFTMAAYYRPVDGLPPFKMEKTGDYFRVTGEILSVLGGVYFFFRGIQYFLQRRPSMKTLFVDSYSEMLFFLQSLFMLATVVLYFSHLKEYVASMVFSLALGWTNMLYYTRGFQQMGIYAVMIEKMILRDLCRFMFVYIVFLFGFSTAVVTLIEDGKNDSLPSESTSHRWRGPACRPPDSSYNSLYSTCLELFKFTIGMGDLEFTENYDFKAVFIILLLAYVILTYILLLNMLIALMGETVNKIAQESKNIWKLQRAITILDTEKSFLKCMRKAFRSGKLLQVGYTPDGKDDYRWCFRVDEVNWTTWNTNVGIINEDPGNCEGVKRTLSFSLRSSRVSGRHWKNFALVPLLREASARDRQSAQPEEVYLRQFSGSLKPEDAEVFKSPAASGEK
T5 sequence (P10635 whole entry): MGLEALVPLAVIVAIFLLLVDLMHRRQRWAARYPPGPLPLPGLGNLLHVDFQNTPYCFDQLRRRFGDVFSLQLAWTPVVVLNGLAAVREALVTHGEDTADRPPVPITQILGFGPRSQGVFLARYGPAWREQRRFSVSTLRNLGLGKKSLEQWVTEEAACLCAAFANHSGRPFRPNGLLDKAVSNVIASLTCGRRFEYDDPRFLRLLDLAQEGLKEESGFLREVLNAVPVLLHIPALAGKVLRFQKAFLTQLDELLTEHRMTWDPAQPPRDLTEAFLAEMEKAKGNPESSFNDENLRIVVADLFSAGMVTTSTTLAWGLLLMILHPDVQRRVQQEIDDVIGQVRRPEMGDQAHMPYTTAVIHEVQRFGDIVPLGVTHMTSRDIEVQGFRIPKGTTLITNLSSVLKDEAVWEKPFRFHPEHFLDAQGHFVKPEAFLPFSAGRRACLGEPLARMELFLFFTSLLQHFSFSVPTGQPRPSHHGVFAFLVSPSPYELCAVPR
T6 sequence (P11712 whole entry): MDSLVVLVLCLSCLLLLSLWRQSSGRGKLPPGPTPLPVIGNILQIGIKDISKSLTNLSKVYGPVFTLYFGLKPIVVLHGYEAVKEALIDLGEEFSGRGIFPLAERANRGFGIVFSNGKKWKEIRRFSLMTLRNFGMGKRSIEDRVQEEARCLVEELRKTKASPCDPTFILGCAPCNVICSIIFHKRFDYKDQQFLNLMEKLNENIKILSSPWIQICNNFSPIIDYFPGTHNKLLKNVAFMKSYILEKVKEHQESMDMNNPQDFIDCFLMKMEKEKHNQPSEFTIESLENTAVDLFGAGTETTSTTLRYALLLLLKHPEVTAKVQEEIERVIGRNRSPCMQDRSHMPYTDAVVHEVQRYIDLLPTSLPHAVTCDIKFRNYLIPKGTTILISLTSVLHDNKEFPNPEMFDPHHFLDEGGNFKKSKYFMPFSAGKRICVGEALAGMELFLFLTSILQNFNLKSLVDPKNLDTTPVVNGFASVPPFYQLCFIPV
T2 sequence (P05177 whole entry): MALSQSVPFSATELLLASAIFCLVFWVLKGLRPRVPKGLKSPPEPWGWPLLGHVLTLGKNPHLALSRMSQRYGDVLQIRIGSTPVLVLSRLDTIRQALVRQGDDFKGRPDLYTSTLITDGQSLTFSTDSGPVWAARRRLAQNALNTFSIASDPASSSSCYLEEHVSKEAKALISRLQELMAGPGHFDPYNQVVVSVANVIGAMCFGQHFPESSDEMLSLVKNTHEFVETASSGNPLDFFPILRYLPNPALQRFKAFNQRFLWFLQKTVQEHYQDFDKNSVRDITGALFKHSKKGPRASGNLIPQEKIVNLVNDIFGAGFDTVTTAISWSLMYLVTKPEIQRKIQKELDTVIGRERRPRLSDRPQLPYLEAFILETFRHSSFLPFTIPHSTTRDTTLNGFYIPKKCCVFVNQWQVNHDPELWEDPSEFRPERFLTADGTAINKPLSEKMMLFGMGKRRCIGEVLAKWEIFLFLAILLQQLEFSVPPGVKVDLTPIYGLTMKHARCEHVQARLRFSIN
T3 sequence (P08684 whole entry): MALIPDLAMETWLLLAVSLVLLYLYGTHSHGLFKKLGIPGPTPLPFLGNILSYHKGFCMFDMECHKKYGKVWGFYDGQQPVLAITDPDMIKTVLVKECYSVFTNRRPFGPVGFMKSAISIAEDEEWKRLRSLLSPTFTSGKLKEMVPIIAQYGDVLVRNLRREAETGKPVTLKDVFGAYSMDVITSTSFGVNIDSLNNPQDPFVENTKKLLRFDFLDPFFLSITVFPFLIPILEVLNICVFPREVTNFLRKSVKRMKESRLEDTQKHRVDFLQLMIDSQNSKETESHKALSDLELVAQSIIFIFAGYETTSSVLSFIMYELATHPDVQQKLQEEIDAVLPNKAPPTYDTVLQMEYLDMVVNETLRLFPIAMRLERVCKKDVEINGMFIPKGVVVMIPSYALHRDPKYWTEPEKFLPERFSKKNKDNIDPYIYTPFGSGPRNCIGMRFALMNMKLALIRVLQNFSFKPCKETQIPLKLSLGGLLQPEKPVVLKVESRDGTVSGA
T4 sequence (P33261 whole entry): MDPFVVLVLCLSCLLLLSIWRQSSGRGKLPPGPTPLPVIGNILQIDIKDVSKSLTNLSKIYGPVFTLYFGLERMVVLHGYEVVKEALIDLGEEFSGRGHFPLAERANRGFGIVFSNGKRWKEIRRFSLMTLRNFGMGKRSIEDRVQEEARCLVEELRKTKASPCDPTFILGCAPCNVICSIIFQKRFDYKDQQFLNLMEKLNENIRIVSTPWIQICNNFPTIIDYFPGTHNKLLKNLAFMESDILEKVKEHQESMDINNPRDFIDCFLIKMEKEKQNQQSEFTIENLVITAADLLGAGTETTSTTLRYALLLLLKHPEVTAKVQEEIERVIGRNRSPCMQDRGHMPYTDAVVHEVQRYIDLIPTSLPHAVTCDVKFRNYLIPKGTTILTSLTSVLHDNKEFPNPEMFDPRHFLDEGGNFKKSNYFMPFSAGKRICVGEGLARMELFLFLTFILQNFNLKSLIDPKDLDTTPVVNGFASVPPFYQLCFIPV

Cc1cc(C(=O)N2Cc3cnn(C)c3Nc3ccccc32)ccc1CNC(=O)N1CCC[C@H]1C(=S)N(C)C [LIT-001]
agonist or antagonist activity at TRPV1 receptor [1]: No significant agonist or antagonist; also recorded: neither LIT-001 nor the OT antagonist L-368,699 displayed any significant agonist or antagonist activity | IC50 (CYP 1A2): 51 µM | IC50 (CYP 3A4): 11 µM | IC50 (CYP 2C19): 21 µM | interaction with CYP 2D6 (CYP 2D6): did not interact | interaction with CYP 2C9 (CYP 2C9): did not interact
